Where two headings read alike, the source gives them in different places.

For orientation: IC50 means the concentration that inhibits the measured activity by half.

One data set has as its target recombinant PI3 kinase δ (Homo sapiens (Human), UniProt O00329). Kind of data set: Enzyme Inhibition Assay (HTRF PI3K enzyme assay, TR-FRET). It counts as biochemical. To be noted: activity range; read-out: PI3 Kinase Inhibition IC50 values at stated Isozyme δ. The method, boiled down: (§1)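 TR-FRET readout after 15-18 hr at RT with biotinylated PIP3, GST-tagged GRP1 PH domain and europium/APC fluorophores; product PIP3 displaces the tracer and lowers the signal. Beforehand, compound and PIP2 were reacted for 2 hr at RT with human recombinant PI3Kα, δ or γ.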

The target in a further data set is recombinant PI3 kinase γ (Homo sapiens (Human), UniProt P48736). Described as above. The class given is biochemical. The note with it: activity range; read-out: PI3 Kinase Inhibition IC50 values at stated Isozyme γ. The method, boiled down: as §1
A further data set addresses recombinant PI3 kinase α (Homo sapiens (Human), UniProt P42336). Described as above. To be noted: activity range; read-out: PI3 Kinase Inhibition IC50 values at stated Isozyme α. The class given is biochemical. Put shortly:
as §1

Data set [1] can be described thus: Stereochemical analysis by chiral stationary phase HPLC (atropisomerism). It counts as physicochemical. The note with it: for atropisomerism by chiral stationary phase HPLC: chiral stationary phase HPLC (16 different conditions for the examples). How it is done: Each of these mobile phase are compatible with the column packings referred to above, providing sixteen different solvent and stationary phase permutations. Modifiers such as triethylamine (0.1%), formic acid (0.1%) may be added to improve the resolution
Semi-preparative Chiral Stationary Phase LC-UV was performed on a Gilson preparative modular system using a Daicel Chiralpak AD semi-prep column ([…], 20×250 mm) and a flow rate of 18 mL/min eluting with an isocratic method over 20 min using […] heptane:IPA and 0.1% triethylamine employing an injection volume of 1.0 mL.

Data set [2] concerns PMA-differentiated U937 cells. Kind of data set: MTT Assay (cell viability). The class given is cell-based, Human. The note with it: percentage loss of cell viability; for Cell Viability MTT Assay in D-U937 cells at 4 hr: 4 hr in 5% FCS; for Cell Viability MTT Assay in D-U937 cells at 24 hr: 24 hr in 10% FCS. The method, boiled down:
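Differentiated U937 cells treated with compound for 4 hr (5% FCS) or 24 hr (10% FCS), then given MTT for 1 hr; formazan dissolved in DMSO and absorbance read at 550 nm. Viability loss expressed as % versus 0.5% DMSO vehicle.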

The subject of data set [3] is H2O2 induced pAkt in D-U937 cells. Kind of data set: PI3Kδ Cell Based Assay (H2O2 induced pAkt). To be noted: Homo sapiens. The method, boiled down: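 Read-out is the pAkt/total Akt signal ratio, measured with anti-pAkt and anti-pan-Akt antibodies after H2O2 stimulation. Cells were U937 monocytes given PMA (100 ng/mL) for 48 to 72 hr. IC50 values fitted from compound serial dilutions.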

[4] abbreviates: dU937, activity range, D-U937 cells, read-out: Cellular Activity IC50 values (H2O2 induced pAkt D-U937 Cells).
Where [5] appears, read: dU937, read-out: Cellular Activity IC50 values (H2O2 induced pAkt D-U937 Cells).

Sequence of recombinant PI3 kinase α (P42336 whole entry): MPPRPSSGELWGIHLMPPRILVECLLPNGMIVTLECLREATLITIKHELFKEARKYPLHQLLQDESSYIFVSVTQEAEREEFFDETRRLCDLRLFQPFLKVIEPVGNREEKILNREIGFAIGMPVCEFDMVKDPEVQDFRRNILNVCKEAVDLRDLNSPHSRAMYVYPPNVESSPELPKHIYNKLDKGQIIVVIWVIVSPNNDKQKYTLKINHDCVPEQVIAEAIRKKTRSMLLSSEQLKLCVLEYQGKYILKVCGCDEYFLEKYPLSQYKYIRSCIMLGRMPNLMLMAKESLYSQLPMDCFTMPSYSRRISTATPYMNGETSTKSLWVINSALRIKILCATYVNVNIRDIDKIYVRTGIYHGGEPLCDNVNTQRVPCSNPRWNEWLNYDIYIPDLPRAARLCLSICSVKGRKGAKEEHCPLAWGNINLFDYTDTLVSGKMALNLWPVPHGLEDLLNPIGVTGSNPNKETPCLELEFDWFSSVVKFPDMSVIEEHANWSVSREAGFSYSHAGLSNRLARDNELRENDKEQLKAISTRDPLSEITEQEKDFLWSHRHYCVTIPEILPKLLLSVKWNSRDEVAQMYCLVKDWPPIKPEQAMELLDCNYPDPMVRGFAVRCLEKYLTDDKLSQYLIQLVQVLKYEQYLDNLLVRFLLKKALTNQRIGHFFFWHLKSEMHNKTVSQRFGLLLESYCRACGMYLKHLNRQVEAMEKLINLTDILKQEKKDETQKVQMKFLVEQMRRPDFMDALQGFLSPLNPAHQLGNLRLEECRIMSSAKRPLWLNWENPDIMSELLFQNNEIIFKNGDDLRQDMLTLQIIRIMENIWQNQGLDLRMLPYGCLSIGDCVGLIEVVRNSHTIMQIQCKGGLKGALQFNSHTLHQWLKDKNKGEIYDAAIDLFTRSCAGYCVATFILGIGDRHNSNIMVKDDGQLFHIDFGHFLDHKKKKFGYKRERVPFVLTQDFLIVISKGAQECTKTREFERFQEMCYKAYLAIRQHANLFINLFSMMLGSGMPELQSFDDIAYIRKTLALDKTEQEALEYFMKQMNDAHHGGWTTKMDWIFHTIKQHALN
Sequence of recombinant PI3 kinase α (P27986 whole entry partner): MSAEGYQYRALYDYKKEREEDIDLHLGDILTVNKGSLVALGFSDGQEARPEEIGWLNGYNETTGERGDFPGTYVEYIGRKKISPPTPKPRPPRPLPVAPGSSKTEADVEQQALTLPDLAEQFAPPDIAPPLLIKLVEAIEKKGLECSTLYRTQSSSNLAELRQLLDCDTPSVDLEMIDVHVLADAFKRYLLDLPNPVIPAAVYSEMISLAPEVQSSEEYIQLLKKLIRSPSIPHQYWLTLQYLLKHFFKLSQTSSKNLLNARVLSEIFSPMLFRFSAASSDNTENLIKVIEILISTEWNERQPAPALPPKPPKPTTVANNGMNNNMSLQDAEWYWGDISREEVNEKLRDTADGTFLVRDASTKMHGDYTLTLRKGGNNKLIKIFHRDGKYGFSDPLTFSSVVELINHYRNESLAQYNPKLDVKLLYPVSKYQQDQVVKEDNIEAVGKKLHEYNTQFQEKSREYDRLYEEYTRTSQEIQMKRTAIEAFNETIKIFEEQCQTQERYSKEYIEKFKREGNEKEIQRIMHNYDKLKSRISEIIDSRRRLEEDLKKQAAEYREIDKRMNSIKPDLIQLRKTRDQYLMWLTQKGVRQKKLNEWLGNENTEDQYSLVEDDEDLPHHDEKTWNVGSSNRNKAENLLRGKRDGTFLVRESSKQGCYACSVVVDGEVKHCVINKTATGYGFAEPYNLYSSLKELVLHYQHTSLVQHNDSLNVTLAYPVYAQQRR
Sequence of recombinant PI3 kinase γ (P48736 whole entry): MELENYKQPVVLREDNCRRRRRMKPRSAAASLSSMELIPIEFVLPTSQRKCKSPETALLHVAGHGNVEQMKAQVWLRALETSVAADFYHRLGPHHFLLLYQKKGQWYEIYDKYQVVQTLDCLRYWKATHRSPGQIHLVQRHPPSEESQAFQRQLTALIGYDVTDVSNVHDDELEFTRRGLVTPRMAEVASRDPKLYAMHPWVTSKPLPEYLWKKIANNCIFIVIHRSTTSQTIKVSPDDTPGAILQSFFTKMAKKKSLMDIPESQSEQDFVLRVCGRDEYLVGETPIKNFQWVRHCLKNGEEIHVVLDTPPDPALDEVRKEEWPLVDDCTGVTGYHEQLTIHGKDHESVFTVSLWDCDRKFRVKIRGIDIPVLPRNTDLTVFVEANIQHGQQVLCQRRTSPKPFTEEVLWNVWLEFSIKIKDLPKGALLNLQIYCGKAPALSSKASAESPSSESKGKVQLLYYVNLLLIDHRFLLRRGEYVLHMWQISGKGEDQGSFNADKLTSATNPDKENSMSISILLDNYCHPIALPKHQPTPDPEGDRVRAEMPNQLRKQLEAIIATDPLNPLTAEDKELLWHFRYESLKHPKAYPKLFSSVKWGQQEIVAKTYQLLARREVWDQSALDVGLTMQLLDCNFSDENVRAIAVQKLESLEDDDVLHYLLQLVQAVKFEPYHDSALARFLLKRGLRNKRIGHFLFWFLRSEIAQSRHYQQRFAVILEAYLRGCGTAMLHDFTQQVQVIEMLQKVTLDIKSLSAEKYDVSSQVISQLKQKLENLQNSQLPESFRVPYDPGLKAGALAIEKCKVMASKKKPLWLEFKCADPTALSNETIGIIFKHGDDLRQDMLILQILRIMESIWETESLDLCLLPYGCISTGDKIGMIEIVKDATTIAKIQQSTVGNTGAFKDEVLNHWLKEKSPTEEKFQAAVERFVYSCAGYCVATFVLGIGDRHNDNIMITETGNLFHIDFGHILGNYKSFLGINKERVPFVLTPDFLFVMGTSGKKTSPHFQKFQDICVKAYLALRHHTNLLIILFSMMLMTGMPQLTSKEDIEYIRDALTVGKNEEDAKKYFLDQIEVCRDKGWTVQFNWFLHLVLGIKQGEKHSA
Sequence of recombinant PI3 kinase δ (O00329 whole entry, the tested form may be a part): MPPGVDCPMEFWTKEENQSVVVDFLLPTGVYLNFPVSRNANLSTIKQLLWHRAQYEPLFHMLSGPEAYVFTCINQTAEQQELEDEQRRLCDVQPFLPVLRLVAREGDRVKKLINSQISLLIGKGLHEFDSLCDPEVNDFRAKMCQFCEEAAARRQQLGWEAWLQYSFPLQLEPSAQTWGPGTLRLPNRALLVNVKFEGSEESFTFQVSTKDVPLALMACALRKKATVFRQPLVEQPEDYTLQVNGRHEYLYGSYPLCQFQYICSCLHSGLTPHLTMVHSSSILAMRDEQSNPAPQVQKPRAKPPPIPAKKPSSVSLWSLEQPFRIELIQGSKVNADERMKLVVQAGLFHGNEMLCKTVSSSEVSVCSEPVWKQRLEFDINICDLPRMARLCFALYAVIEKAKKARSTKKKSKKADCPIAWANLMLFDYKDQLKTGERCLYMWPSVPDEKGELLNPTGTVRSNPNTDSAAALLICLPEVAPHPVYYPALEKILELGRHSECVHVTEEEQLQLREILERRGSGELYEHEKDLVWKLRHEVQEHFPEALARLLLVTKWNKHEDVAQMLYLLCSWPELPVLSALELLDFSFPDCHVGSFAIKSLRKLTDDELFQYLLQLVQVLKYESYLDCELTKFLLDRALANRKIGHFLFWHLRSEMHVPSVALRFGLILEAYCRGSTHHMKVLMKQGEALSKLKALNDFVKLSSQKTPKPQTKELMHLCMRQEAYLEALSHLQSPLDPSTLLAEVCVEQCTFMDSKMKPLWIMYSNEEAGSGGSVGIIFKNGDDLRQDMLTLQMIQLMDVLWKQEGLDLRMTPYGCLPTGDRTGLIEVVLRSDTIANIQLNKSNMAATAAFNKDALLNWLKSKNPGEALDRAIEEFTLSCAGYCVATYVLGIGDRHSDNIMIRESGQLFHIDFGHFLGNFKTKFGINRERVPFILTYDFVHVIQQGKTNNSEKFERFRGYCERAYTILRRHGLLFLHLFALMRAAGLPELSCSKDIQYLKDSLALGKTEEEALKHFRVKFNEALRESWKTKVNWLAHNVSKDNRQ
Sequence of recombinant PI3 kinase δ (P27986 whole entry partner, the tested form may be a part): as the sequence (P27986 whole entry partner) above

In the case of `C#Cc1cccc2nc(Cn3nc(-c4cccc(O)c4)c4c(N)ncnc43)n(Cc3ccc(C(F)(F)F)cc3)c(=O)c12` [Example 21, 2-((4-Amino-3-(3-hydroxyphenyl)-1H-pyrazolo[3,4-d]pyrimidin-1-yl)methyl)-5-ethynyl-3-(4-(trifluoromethyl)benzyl)quinazolin-4(3H)-one], the IC50 is under 0.05 µM on recombinant PI3 kinase δ, 0.05 to 1 µM at recombinant PI3 kinase γ, 0.05 to 1 µM at recombinant PI3 kinase α and under 0.01 µM in data set [3] (setting [4]). Further, the “atropisomerism by chiral stationary phase HPLC” value (“atropisomerism” below) in data set [1] is reported as “no evidence for atropisomerism was observed”. In addition, the “Cell Viability MTT Assay in D-U937 cells at 4 hr” value in data set [2] is listed as “− (− <30%)”. In addition, the “Cell Viability MTT Assay in D-U937 cells at 24 hr” value in data set [2] is reported as “− (− <30%)”.

For the molecule `C#Cc1cccc2nc(Cn3nc(-c4cccc(O)c4)c4c(N)ncnc43)n(Cc3cc(C)on3)c(=O)c12` [Example 31, 2-((4-Amino-3-(3-hydroxyphenyl)-1H-pyrazolo[3,4-d]pyrimidin-1-yl)methyl)-5-ethynyl-3-((5-methylisoxazol-3-yl)methyl)quinazolin-4(3H)-one], the IC50 on recombinant PI3 kinase δ was under 0.05 µM; at recombinant PI3 kinase γ, 0.05 to 1 µM; on recombinant PI3 kinase α it was 0.05 to 1 µM; in data set [3] (setting [4]) it was under 0.01 µM. Moreover, in data set [1], the “atropisomerism” value was “no evidence for atropisomerism was observed”. In addition, the “Cell Viability MTT Assay in D-U937 cells at 4 hr” value in data set [2] is “− (− <30%)”. In addition, the “Cell Viability MTT Assay in D-U937 cells at 24 hr” value in data set [2] is listed as “− (− <30%)”.

As to `C#Cc1cccc2nc(Cn3nc(-c4ccc(O)cc4)c4c(N)ncnc43)n(Cc3cccc(OC)c3)c(=O)c12` [Example 14, 2-((4-Amino-3-(4-hydroxyphenyl)-1H-pyrazolo[3,4-d]pyrimidin-1-yl)methyl)-5-ethynyl-3-(3-methoxybenzyl)quinazolin-4(3H)-one], the IC50 on recombinant PI3 kinase δ was under 0.05 µM; at recombinant PI3 kinase γ, 0.05 to 1 µM; at recombinant PI3 kinase α it was 0.05 to 1 µM; in data set [3] (setting [4]) it was under 0.01 µM. Further, in data set [1], the “atropisomerism” value is reported as “no evidence for atropisomerism was observed”. For the same molecule, in data set [2], the “Cell Viability MTT Assay in D-U937 cells at 4 hr” value is on record as “− (− <30%)”. The “Cell Viability MTT Assay in D-U937 cells at 24 hr” value in data set [2] was “− (− <30%)”.

For the molecule `C#Cc1cccc2nc(Cn3nc(-c4cccc(O)c4)c4c(N)ncnc43)n(Cc3cccc(Cl)c3)c(=O)c12` [Example 10, 2-((4-Amino-3-(3-hydroxyphenyl)-1H-pyrazolo[3,4-d]pyrimidin-1-yl)methyl)-3-(3-chlorobenzyl)-5-ethynyl quinazolin-4(3H)-one], the IC50 on recombinant PI3 kinase δ was under 0.05 µM; on recombinant PI3 kinase γ, 0.05 to 1 µM; at recombinant PI3 kinase α, 0.05 to 1 µM; in data set [3] (setting [5]), under 0.01 µM. In addition, the “atropisomerism” value in data set [1] was “no evidence for atropisomerism was observed”. Also, in data set [2], the “Cell Viability MTT Assay in D-U937 cells at 4 hr” value was “− (− <30%)”. Moreover, the “Cell Viability MTT Assay in D-U937 cells at 24 hr” value in data set [2] is “− (− <30%)”.

As for `Cc1ccccc1-n1c(Cn2nc(-c3cccc(O)c3)c3c(N)ncnc32)nc2cccc(C)c2c1=O` [PIK294, reference compound], the “interconversion of separated atropisomers” value in data set [1] (ambient and elevated temperatures, over several days) is “no detectable signs of interconversion”. Further, the “atropisomerism” value in data set [1] is 1:1 mixture of enantiomeric atropisomers.

Turning to `Nc1ncnc2c1c(-c1cccc(O)c1)nn2Cc1nc2cccc(C#CCOCCN3CCOCC3)c2c(=O)n1Cc1ccccc1Cl` [Example 8, 2-((4-Amino-3-(3-hydroxyphenyl)-1H-pyrazolo[3,4-d]pyrimidin-1-yl)methyl)-3-(2-chlorobenzyl)-5-(3-(2-morpholinoethoxy)prop-1-ynyl)quinazolin-4(3H)-one], the IC50 on recombinant PI3 kinase δ is under 0.05 µM; at recombinant PI3 kinase γ, 0.05 to 1 µM; on recombinant PI3 kinase α it was 0.05 to 1 µM; in data set [3] (setting [5]) it was under 0.01 µM. Besides, the “Cell Viability MTT Assay in D-U937 cells at 4 hr” value in data set [2] is reported as “− (− <30%)”. In addition, in data set [2], the “Cell Viability MTT Assay in D-U937 cells at 24 hr” value is recorded as “− (− <30%)”.

As to `C#Cc1cccc2nc(Cn3nc(-c4ccc(O)cc4)c4c(N)ncnc43)n(Cc3ccc(Cl)c(Cl)c3)c(=O)c12` [Example 43, 2-((4-Amino-3-(4-hydroxyphenyl)-1H-pyrazolo[3,4-d]pyrimidin-1-yl)methyl)-3-(3,4-dichlorobenzyl)-5-ethynylquinazolin-4(3H)-one], the IC50 on recombinant PI3 kinase δ is under 0.05 µM; on recombinant PI3 kinase γ it was 0.05 to 1 µM; on recombinant PI3 kinase α it was 0.05 to 1 µM; in data set [3] (setting [4]), under 0.01 µM. Besides, the “Cell Viability MTT Assay in D-U937 cells at 4 hr” value in data set [2] is “− (− <30%)”. The “Cell Viability MTT Assay in D-U937 cells at 24 hr” value in data set [2] was “− (− <30%)”.

For `C#Cc1cccc2nc(Cn3nc(-c4ccc(O)cc4)c4c(N)ncnc43)n(Cc3ccc(C#N)cc3)c(=O)c12` [Example 47, 4-((2-((4-Amino-3-(4-hydroxyphenyl)-1H-pyrazolo[3,4-d]pyrimidin-1-yl)methyl)-5-ethynyl-4-oxoquinazolin-3(4H)-yl)methyl)benzonitrile], the IC50 is under 0.05 µM on recombinant PI3 kinase δ, 0.05 to 1 µM on recombinant PI3 kinase γ, 0.05 to 1 µM on recombinant PI3 kinase α and under 0.01 µM in data set [3] (setting [4]). Besides, the “Cell Viability MTT Assay in D-U937 cells at 4 hr” value in data set [2] is reported as “− (− <30%)”. Moreover, in data set [2], the “Cell Viability MTT Assay in D-U937 cells at 24 hr” value is given as “− (− <30%)”.

On to `Nc1ncnc2c1c(-c1cccc(O)c1)nn2Cc1nc2cccc(C#CCCCC(=O)N3CCOCC3)c2c(=O)n1Cc1ccccc1Cl` [Example 3, 2-((4-Amino-3-(3-hydroxyphenyl)-1H-pyrazolo[3,4-d]pyrimidin-1-yl)methyl)-3-(2-chlorobenzyl)-5-(6-morpholino-6-oxohex-1-yn-1-yl)quinazolin-4(3H)-one], for which the IC50 on recombinant PI3 kinase δ was under 0.05 µM; at recombinant PI3 kinase γ, under 0.05 µM; on recombinant PI3 kinase α, under 0.05 µM; in data set [3] (setting [4]), under 0.01 µM. Also, the “Cell Viability MTT Assay in D-U937 cells at 4 hr” value in data set [2] was “− (− <30%)”. Also, the “Cell Viability MTT Assay in D-U937 cells at 24 hr” value in data set [2] is “− (− <30%)”.

With `Nc1ncnc2c1c(-c1ccc(O)cc1)nn2Cc1nc2cccc(C#CCCCC(=O)NCCN3CCOCC3)c2c(=O)n1Cc1ccccc1Cl` [Example 76, 6-(2-((4-Amino-3-(4-hydroxyphenyl)-1H-pyrazolo[3,4-d]pyrimidin-1-yl)methyl)-3-(2-chlorobenzyl)-4-oxo-3,4-dihydroquinazolin-5-yl)-N-(2-morpholinoethyl)hex-5-ynamide], the IC50 at recombinant PI3 kinase δ is under 0.05 µM; at recombinant PI3 kinase γ, under 0.05 µM; at recombinant PI3 kinase α, 0.05 to 1 µM; in data set [3] (setting [4]), under 0.01 µM. Moreover, in data set [2], the “Cell Viability MTT Assay in D-U937 cells at 4 hr” value is listed as “− (− <30%)”. The “Cell Viability MTT Assay in D-U937 cells at 24 hr” value in data set [2] is reported as “− (− <30%)”.

`CN(C)CCNC(=O)CCCC#Cc1cccc2nc(Cn3nc(-c4ccc(O)cc4)c4c(N)ncnc43)n(Cc3ccccc3Cl)c(=O)c12` [Example 78, 6-(2-((4-Amino-3-(4-hydroxyphenyl)-1H-pyrazolo[3,4-d]pyrimidin-1-yl)methyl)-3-(2-chlorobenzyl)-4-oxo-3,4-dihydroquinazolin-5-yl)-N-(2-(dimethylamino)ethyl) hex-5-ynamide]: the IC50 is under 0.05 µM on recombinant PI3 kinase δ, under 0.05 µM on recombinant PI3 kinase γ, 0.05 to 1 µM at recombinant PI3 kinase α and under 0.01 µM in data set [3] (setting [4]). Besides, the “Cell Viability MTT Assay in D-U937 cells at 4 hr” value in data set [2] is listed as “− (− <30%)”. Besides, the “Cell Viability MTT Assay in D-U937 cells at 24 hr” value in data set [2] was “− (− <30%)”.

Values taken from patent publication US9321773B2, “Compounds” (Respivert Ltd, priority 2009, dated 2016).
